For 13 compounds, TGI and GI50 results are on record in PubChem BioAssay (NCI).

Test systems include CAKI-1 renal; COLO 205 colon; HT29 colon; M14 melanoma; MOLT-4 leukemia; NCI-H23 lung; OVCAR-5 ovarian; OVCAR-8 ovarian; SNB-75 CNS; UO-31 renal.
Assay in all cases: growth of human tumour cells (NCI), 48 h

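Interpolation was linear, between the two tested concentrations surrounding the appropriate level; five concentrations were tested over 48 hours in 96-well plates. GI50 = concentration required for 50% inhibition of growth. TGI marks complete inhibition of growth.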 A value given as a limit tells only on which side of the number the result lay.

With `C=C1c2ccccc2C(=O)c2c1c1c(C(=O)OC)c(O)ccc1n2Cc1ccccc1`, the TGI with CAKI-1 renal came out at 1.71 µM; with COLO 205 colon it was 3.72 µM; in the test on HT29 colon, 0.823 µM; in the test on M14 melanoma, 1.03 µM; with MOLT-4 leukemia, 0.971 µM; with NCI-H23 lung it was 2.8 µM. Further, the TGI in the test with OVCAR-5 ovarian came to 2.44 µM; in the test on OVCAR-8 ovarian, 0.952 µM; with SNB-75 CNS, 0.899 µM; in the test on UO-31 renal it was 1.74 µM.

On to `CCOC(=O)C1=C(C)OC2(O)C=CC(O)=C3C(=O)N(c4ccccc4)C(=O)C312` (stereo not given), for which the TGI in the test with CAKI-1 renal was more than 100 µM; in the test with COLO 205 colon, more than 100 µM; in the test with HT29 colon, 76.7 µM; with M14 melanoma, more than 100 µM; with MOLT-4 leukemia, more than 100 µM; with NCI-H23 lung, more than 100 µM. Besides, the TGI in the test on OVCAR-5 ovarian is more than 100 µM; with OVCAR-8 ovarian, more than 100 µM; in the test on SNB-75 CNS, 87.8 µM; in the test with UO-31 renal, 65.4 µM.

As for `Nc1ncnc2c1ncn2C=C=CCO`, the TGI in the test on CAKI-1 renal, in the test with COLO 205 colon, in the test on HT29 colon, with M14 melanoma, in the test on MOLT-4 leukemia and in the test on NCI-H23 lung was more than 100 µM in each case. Also, the TGI in the test with OVCAR-5 ovarian, in the test with OVCAR-8 ovarian, with SNB-75 CNS and with UO-31 renal was more than 100 µM in each case.

With `NN(CC(=O)O)CC(=O)O`, the TGI in the test on CAKI-1 renal, in the test with COLO 205 colon, in the test on HT29 colon, with M14 melanoma, with MOLT-4 leukemia and in the test on NCI-H23 lung was more than 100 µM in each case. Also, the TGI in the test on OVCAR-5 ovarian, in the test on OVCAR-8 ovarian and in the test with UO-31 renal was more than 100 µM throughout.

As for `CN1CCc2[nH]c3ccccc3c2C1`, the TGI in the test with CAKI-1 renal, in the test on COLO 205 colon, in the test on HT29 colon, in the test on MOLT-4 leukemia, in the test on NCI-H23 lung and in the test with OVCAR-5 ovarian was more than 100 µM throughout. Besides, the TGI in the test on OVCAR-8 ovarian, in the test on SNB-75 CNS and in the test on UO-31 renal was more than 100 µM throughout.

With `CCCCCCCCCCCCCCCCCCOc1ccccc1CC(=O)OCC[N+]1(C)CCCCC1`, the GI50 was 1.74 µM in the test on CAKI-1 renal; 1.61 µM in the test on HT29 colon; 2.52 µM with M14 melanoma; 1.73 µM with MOLT-4 leukemia; 1.8 µM in the test on NCI-H23 lung; 2.32 µM with OVCAR-5 ovarian. The GI50 with OVCAR-8 ovarian is 2.4 µM; in the test with SNB-75 CNS it was 1.39 µM; with UO-31 renal, 4.14 µM. For the same compound, the TGI was determined as 4.87 µM with CAKI-1 renal; 3.1 µM in the test with HT29 colon; 6.58 µM in the test with M14 melanoma; 3.89 µM in the test on MOLT-4 leukemia; 4.25 µM in the test with NCI-H23 lung; 7.49 µM with OVCAR-5 ovarian. Moreover, the TGI was 5.99 µM in the test on OVCAR-8 ovarian, 3.72 µM in the test on SNB-75 CNS and 19.7 µM in the test on UO-31 renal.

With `O=C(Nc1ccc(Cl)cc1)c1cc2cc(N=Nc3ccccc3Cl)ccc2oc1=O`, the TGI is more than 100 µM in the test on CAKI-1 renal; more than 100 µM in the test with COLO 205 colon; 29.6 µM with HT29 colon; 55 µM with M14 melanoma; 10.1 µM in the test with MOLT-4 leukemia; 34.5 µM in the test on NCI-H23 lung. Moreover, the TGI in the test on OVCAR-5 ovarian stood at 91.3 µM; in the test with OVCAR-8 ovarian, 59 µM; in the test with SNB-75 CNS, 72.5 µM; with UO-31 renal it was 39.3 µM.

With `O=C([O-])C[n+]1ccccc1`, the TGI with CAKI-1 renal, with COLO 205 colon, in the test on HT29 colon, in the test on M14 melanoma, with MOLT-4 leukemia and in the test with NCI-H23 lung was more than 100 µM each time. Also, the TGI in the test with OVCAR-5 ovarian, in the test with OVCAR-8 ovarian, in the test with SNB-75 CNS and with UO-31 renal was more than 100 µM in each case.

Regarding `COc1cc2c(c(O)c1OC)-c1c(cc(OC)c(OC)c1OC)CC(C)C(C)C2` (stereo not given), the TGI in the test with CAKI-1 renal is more than 100 µM; in the test with COLO 205 colon, more than 100 µM; in the test with HT29 colon, more than 100 µM; in the test on M14 melanoma it was more than 100 µM; in the test on MOLT-4 leukemia, 43.4 µM; in the test with NCI-H23 lung it was more than 100 µM. Moreover, the TGI in the test on OVCAR-5 ovarian, in the test on OVCAR-8 ovarian, in the test with SNB-75 CNS and in the test with UO-31 renal was more than 100 µM throughout.

For the compound `CN1CCOC(c2ccc(Cl)cc2)O1` (stereo not given), the TGI with CAKI-1 renal, in the test on COLO 205 colon, with HT29 colon, in the test with M14 melanoma, in the test with MOLT-4 leukemia and in the test on NCI-H23 lung was more than 100 µM throughout. Moreover, the TGI in the test with OVCAR-5 ovarian, in the test on OVCAR-8 ovarian, with SNB-75 CNS and with UO-31 renal was more than 100 µM each time.

Consider `CC(C)=CCC/C(C)=C/CC/C(C)=C/CC/C(C)=C/C=C/C=C(\C)CC/C=C(\C)CC/C=C(\C)CCC=C(C)C`, for which the TGI is 32.1 µM in the test on CAKI-1 renal; more than 100 µM in the test with COLO 205 colon; more than 100 µM with HT29 colon; more than 100 µM in the test with M14 melanoma; 49 µM with MOLT-4 leukemia; more than 100 µM with NCI-H23 lung. Further, the TGI was more than 100 µM in the test on OVCAR-5 ovarian, more than 88.2 µM with OVCAR-8 ovarian, more than 100 µM in the test with SNB-75 CNS and 54.8 µM in the test on UO-31 renal.

`O=C(O)c1cc([N+](=O)[O-])cc2c(=O)c3cnccc3[nH]c12`: the TGI with CAKI-1 renal, with COLO 205 colon, in the test with HT29 colon, in the test with M14 melanoma, with MOLT-4 leukemia and with NCI-H23 lung was more than 100 µM each time. For the same compound, the TGI in the test with OVCAR-5 ovarian, in the test with OVCAR-8 ovarian, with SNB-75 CNS and with UO-31 renal was more than 100 µM in each case.

For `CN(C)CCCSc1nc2ccccc2[nH]1`, the TGI in the test on CAKI-1 renal, in the test with COLO 205 colon, in the test on HT29 colon, with M14 melanoma, in the test with NCI-H23 lung and in the test on OVCAR-5 ovarian was more than 100 µM each time. Further, the TGI with OVCAR-8 ovarian, in the test with SNB-75 CNS and in the test on UO-31 renal was more than 100 µM in each case.
